Values quoted from earlier work, collected in US20020037290A1, “Compositions comprising heat shock proteins or alpha(2) macroglobulin, antigenic molecules and saponins, and methods of use thereof” (priority 2000, published 2002).

B1: gp96 derived from the UV6138: heat shock protein gp96(-peptide complex) preparation isolated from the UV-induced UV6138 mouse carcinoma (protein, UniProt P08113 22-802, looked up)
Endoplasmin: DDEVDVDGTVEEDLGKSREGSRTDDEVVQREEEAIQLDGLNASQIRELREKSEKFAFQAEVNRMMKLIINSLYKNKEIFLRELISNASDALDKIRLISLTDENALAGNEELTVKIKCDKEKNLLHVTDTGVGMTREELVKNLGTIAKSGTSEFLNKMTEAQEDGQSTSELIGQFGVGFYSAFLVADKVIVTSKHNNDTQHIWESDSNEFSVIADPRGNTLGRGTTITLVLKEEASDYLELDTIKNLVRKYSQFINFPIYVWSSKTETVEEPLEEDEAAKEEKEESDDEAAVEEEEEEKKPKTKKVEKTVWDWELMNDIKPIWQRPSKEVEEDEYKAFYKSFSKESDDPMAYIHFTAEGEVTFKSILFVPTSAPRGLFDEYGSKKSDYIKLYVRRVFITDDFHDMMPKYLNFVKGVVDSDDLPLNVSRETLQQHKLLKVIRKKLVRKTLDMIKKIADEKYNDTFWKEFGTNIKLGVIEDHSNRTRLAKLLRFQSSHHSTDITSLDQYVERMKEKQDKIYFMAGSSRKEAESSPFVERLLKKGYEVIYLTEPVDEYCIQALPEFDGKRFQNVAKEGVKFDESEKTKESREATEKEFEPLLNWMKDKALKDKIEKAVVSQRLTESPCALVASQYGWSGNMERIMKAQAYQTGKDISTNYYASQKKTFEINPRHPLIRDMLRRIKEDEDDKTVMDLAVVLFETATLRSGYLLPDTKAYGDRIERMLRLSLNIDPEAQVEEEPEEEPEDTSEDAEDSEQDEGEEMDAGTEEEEEETEKESTEKDEL
modifications: bound tumor peptides
notes: heat shock protein gp96(-peptide complex) preparation isolated from the UV-induced UV6138 mouse carcinoma
B2: liver-derived gp96: gp96-peptide complex derived from normal liver (protein, UniProt P08113 22-802, looked up)
Endoplasmin: B1 Endoplasmin
modifications: bound peptides
B3: gp96 derived from the UV6139: gp96-peptide complex derived from UV6139SJ carcinoma cells (protein, UniProt P08113 22-802, looked up)
Endoplasmin: B1 Endoplasmin
modifications: bound tumor peptides
notes: gp96-peptide complex derived from UV6139SJ carcinoma cells

What was measured:
[1] = system: bovine serum albumin and cytochrome b5; details: Kensil et al., 1991, cited from earlier work; for level of antibody response induced: mice, antigens bovine serum albumin and cytochrome b5; for IgG2a response to cytochrome b5: saponin doses of 20 μg
[2] = system: murine antiidiotype antibody MELIMMUNE-1; details: melanoma patients; Livingston et al., 1995; cited from earlier work
[3] = mouse, in vivo; cited from earlier work
UV6138 carcinoma = details: cited from earlier work
UV6139SJ carcinoma [4] = details: prior experiments, cited from earlier work; for tumor growth, monitored as the average of two perpendicular diameter measurements: U.S. Pat. No. 5,837,251, established UV6139SJ carcinoma
UV6139SJ carcinoma [5] = details: cited from earlier work
[6] = previously shown, U.S. Pat. No. 5,837,251
[7] = prior result of U.S. Pat. No. 5,837,251, resistant mice out of mice challenged

Molecule | level of antibody response induced [1] | IgG2a response to cytochrome b5 [1] | tumor growth, monitored as the average of two perpendicular diameter measurements (UV6139SJ carcinoma [4]) | also measured
QS-21 | comparable to other commonly used adjuvants | stimulate IgG2a response | – | serological response to MELIMMUNE-1 [2]: significantly increased; toxicity in mice [3]: least toxic
QS-17 | comparable to other commonly used adjuvants | stimulate IgG2a response | – | –
QS-18 | comparable to other commonly used adjuvants | stimulate IgG2a response | – | –
B1 | – | – | – | immunity to the UV6138 challenge (UV6138 carcinoma; [6]): rendered the mice immune; resistance conferred against the UV6138 cells (UV6138 carcinoma; [7]): 6 out of 7
B2 | – | – | not | –
B3 | – | – | significantly retarded | immunity to the UV6139SJ challenge (UV6139SJ carcinoma [5]; [6]): conferred resistance; resistance conferred against the UV6139SJ cells (UV6139SJ carcinoma [5]; [7]): 2 out of 4; kinetics of tumor growth in treated and control mice (UV6139SJ carcinoma [4]; effect appears to diminish after treatment is terminated): immediate inhibitory effect on tumor growth
